Laboratory results as given in patent US9605050B2, “Glycoprotein synthesis and remodeling by enzymatic transglycosylation” (UNIVERSITY OF MARYLAND, BALTIMORE, priority 2006, dated 2017).

Assays:
[1] = target: T1, Endo-A (Glutamicibacter protophormiae, UniProt Q9ZB22); assay: Endo-A catalyzed transglycosylation of synthetic oligosaccharide oxazolines (donor substrates) with GlcNAc-peptide/protein acceptors; type: biochemical, Arthrobacter protophormiae; conditions: for donor substrate activity in Endo-A catalyzed transglycosylation: GlcNAc-tripeptide acceptor (27 or 40), phosphate buffer pH 6.5; for relative transglycosylation rates (order): acceptor 27, same conditions; for donor substrate activity in Endo-A transglycosylation to large acceptor: acceptor GlcNAc-C34, donor/acceptor 5:1
Text: To test the transglycosylation potential of the synthetic oligosaccharide oxazolines, a small GlcNAc-tripeptide acceptor, Asn(GlcNAc)-Ile-Thr was synthesized, which represents the minimum consensus sequence for the N24 and N38 N-glycosylation sites in erythropoietin, an important therapeutic glycoprotein for the treatment of anemia.[25] […] As expected, the Endo-A catalyzed reaction of oxazolines 1 and 2 with the GlcNAc-peptide 27 (donoracceptor 3:1) proceeded smoothly in a phosphate buffer (pH 6.5) to give the corresponding N-glycopeptides 28 and 29 in 63 and 86% yields, respectively. […] Thus incubation of 3 and acceptor 27 (ratio 3:1) in the presence of Endo-A gave glycopeptide 30 carrying the N-linked tetrasaccharide moiety in 72% isolated yield. […] The Endo-A catalyzed reaction of 4 with acceptor 27 (3:1) afforded the modified glycopeptide 31 in 55% isolated yield.
(§1) In all cases, the newly formed glycosidic bond in the resulting glycopeptides 28, 29, 30, and 31 was determined by 2D NMR analysis (data not shown) to be a β-1,4-glycosidic linkage, confirming the previous conclusion that the Endo-A catalyzed transglycosylation using oligosaccharide oxazoline as the donor substrates proceeded in a regio- and stereospecific manner.[11]
Next, the structurally related disaccharide oxazolines 5-7 were tested. […] Despite this, the enzyme could tolerate selective modification on the mannose moiety, for example, attachment of additional sugar moieties at the 3′,6′-positions and even an aromatic group at the 6′-position.
(§2) This led to the synthesis of the large glycopeptide 32 that contains the core N-linked tetrasaccharide (75% yield) and glycopeptide 33 which carries a modified trisaccharide (68%) when an excess oxazoline donor (donor/acceptor 5:1) was used. […] Finally, we also tested whether Endo-A could hydrolyze the resulting “ground-state” glycopeptides 28-33 carrying the N-linked core tri-, tetra-, and pentasaccharide, respectively.
A mixture of the respective oligosaccharide oxazoline (10-30 μmol) and the GlcNAc-tripeptide 27 (3 molar equivalents of the donor) or the GlcNAc-C34[7] (5 molar equivalents of the donor) in a phosphate buffer (50 mM, pH 6.5, 0.5-1 mL) was incubated at 25° C. with the enzyme Endo-A (100 mU). The oxazoline derivative was added in portions during the reaction. The reaction was monitored by analytical HPLC by taking aliquots at intervals. It was observed that the transglycosylation reaction with the disaccharide oxazoline derivatives 1 and 4 proceeded slowly and took more than 48 h for reaching the plateau, while the transglycosylation with the tetrasaccharide oxazoline 2 proceeded quickly and would be complete within 2 h. The reaction was stopped by heating in a boiling water bath for 3 min when the peak of the transglycosylation product reached the maximum. The product was purified by preparative HPLC on a Waters preparative column (Symmetry 300, 19×300 mm) to afford the respective glycopeptide, which was characterized by NMR and ESI-MS).
To examine whether the endoglycosidase Endo-A is able to recognize the synthetic nonnatural sugar oxazoline for trans-glycosylation, a model reaction was carried out with a small GlcNAc-peptide, Ac-Asn(GlcNAc)-Ile-Thr (40),[9] as the acceptor, as shown in FIG. 11. The enzymatic reaction was monitored by reverse-phase HPLC. It was observed that the reaction between 39 and 40 (molar ratio 2:1) occurred quickly in the presence of Endo-A, while no ligation would occur in the absence of the enzyme. The glycosylation of the acceptor 40 with oxazoline 39 under the catalysis of Endo-A was essentially complete within 30 min to form the glycopeptide 41, which was isolated in 98% yield. The identity of the glycopeptide was characterized by ESI-MS and NMR.
A mixture of the hexasaccharide oxazoline 39 (0.69 mg, 0.68 μmol) and the GlcNAc-tripeptide 40 (0.2 mg, 0.34 μmol) in a phosphate buffer (50 mM, pH 6.5, 100 μl) was incubated at 23° C. with the enzyme Endo-A (200 mU). […]

[2] = test system: Bacillus chitinase; conditions: cited from earlier work
[3] = target: T1, Endo-A; assay: Endo-A catalyzed transglycosylation of synthetic oligosaccharide oxazolines (donor substrates) with GlcNAc-peptide/protein acceptors; type: biochemical, Arthrobacter protophormiae; conditions: acceptor GlcNAc-RB (43), donor/acceptor 2:1, pH 6.5, 23° C., Endo-A 200 mU
[4] = target: T1, Endo-A; assay: Endo-A catalyzed hydrolysis of oxazolines and of the resulting glycopeptides/glycoprotein; type: biochemical, Arthrobacter protophormiae; conditions: glycopeptides: in the presence of large amount of Endo-A
Experimental: as §1, §2
This is understandable because glycoprotein 44 carries a nonnatural N-glycan and Endo-A is known to hydrolyze only high-mannose type natural N-glycans. […] All these factors contribute to the formation of the trans-glycosylation product. Similarly, Endo-A catalyzed reaction of GlcNAc-RB with the tetrasaccharide oxazoline 2 [7] gave the glycoprotein 45 carrying the core N-linked pentasaccharide Man3GlcNAc2 in 82% yield (Scheme 3). Again, the observed MS (14574.5 Da, from the deconvolution of the ESI-MS data) of the isolated product matches well with the calculated MS (14575.6 Da) of glycoprotein 45. […]

T1 sequence (Q9ZB22 entry or part of it): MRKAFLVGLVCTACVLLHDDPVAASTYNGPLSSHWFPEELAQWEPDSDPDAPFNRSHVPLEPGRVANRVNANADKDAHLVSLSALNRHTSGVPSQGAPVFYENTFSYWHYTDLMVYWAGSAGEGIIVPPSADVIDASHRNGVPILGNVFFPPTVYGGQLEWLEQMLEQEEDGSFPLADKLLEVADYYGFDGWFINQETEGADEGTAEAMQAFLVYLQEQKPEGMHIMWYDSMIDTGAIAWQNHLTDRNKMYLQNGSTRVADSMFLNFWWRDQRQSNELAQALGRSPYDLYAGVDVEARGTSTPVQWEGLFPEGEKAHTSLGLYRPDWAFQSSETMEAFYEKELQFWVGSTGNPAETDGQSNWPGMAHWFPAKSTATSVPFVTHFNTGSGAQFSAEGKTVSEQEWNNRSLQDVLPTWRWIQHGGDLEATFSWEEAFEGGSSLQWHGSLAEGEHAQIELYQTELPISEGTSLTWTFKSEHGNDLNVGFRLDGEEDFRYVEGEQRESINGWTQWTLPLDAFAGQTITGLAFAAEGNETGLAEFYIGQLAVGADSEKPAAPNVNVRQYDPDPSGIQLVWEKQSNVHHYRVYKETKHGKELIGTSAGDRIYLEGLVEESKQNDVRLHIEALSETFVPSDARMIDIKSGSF

CC1=N[C@H]2[C@@H](O1)O[C@H](CO)[C@@H](O[C@@H]1O[C@H](CO)[C@@H](O)[C@H](O)[C@@H]1O)[C@@H]2O [oxazoline 1]
donor substrate activity in Endo-A catalyzed transglycosylation [1]: good donor substrates | relative transglycosylation rates (order) [1]: tetrasaccharide oxazoline 2>trisaccharide oxazoline 3>disaccharide oxazoline 1>Bn-substituted disaccharide oxazoline 4

CC1=N[C@H]2[C@@H](O1)O[C@H](CO)[C@@H](O[C@@H]1O[C@H](CO[C@H]3O[C@H](CO)[C@@H](O)[C@H](O)[C@@H]3O)[C@@H](O)[C@H](O)[C@@H]1O)[C@@H]2O [oxazoline 3]
donor substrate activity in Endo-A catalyzed transglycosylation [1]: efficient donor substrate | relative transglycosylation rates (order) [1]: tetrasaccharide oxazoline 2>trisaccharide oxazoline 3>disaccharide oxazoline 1>Bn-substituted disaccharide oxazoline 4 | donor substrate activity in Endo-A transglycosylation to large acceptor [1]: proceeded successfully

CC1=N[C@H]2[C@@H](O1)O[C@H](CO)[C@@H](O[C@@H]1O[C@H](COCc3ccccc3)[C@@H](O)[C@H](O)[C@@H]1O)[C@@H]2O [oxazoline 4]
donor substrate activity in Endo-A catalyzed transglycosylation [1]: could still be recognized by Endo-A as a donor substrate | relative transglycosylation rates (order) [1]: tetrasaccharide oxazoline 2>trisaccharide oxazoline 3>disaccharide oxazoline 1>Bn-substituted disaccharide oxazoline 4 | donor substrate activity in Endo-A transglycosylation to large acceptor [1]: proceeded successfully

CC1=NC2C(O1)OC(CO)C(OC1OC(CO)C(O)C(O)C1O)C2O (stereo not drawn) [oxazoline 5]
donor substrate activity in Endo-A catalyzed transglycosylation ([1]; listed as 5): inactive

CC(=O)N[C@H]1[C@H](O[C@H]2[C@H](O)[C@H]3N=C(C)O[C@H]3O[C@@H]2CO)O[C@H](CO)[C@@H](O)[C@@H]1O [oxazoline 6, chitobiose oxazoline, reference compound]
substrate of Bacillus chitinase [2]: substrates | donor substrate activity in Endo-A catalyzed transglycosylation [1]: could not be recognized by Endo-A

CC1=NC2C(O1)OC(CO)C(OC1OC(CO)C(O)C(O)C1O)C2O (stereo not drawn) [oxazoline 7, LacNAc-oxazoline, reference compound]
substrate of Bacillus chitinase [2]: substrates | donor substrate activity in Endo-A catalyzed transglycosylation ([1]; listed as 7): could not be recognized by Endo-A

O-β-D-Galactopyranosyl-(1→4)-α-D-mannopyranosyl-(1→3)-[β-D-galactopyranosyl-(1→4)-α-D-mannopyranosyl-(1→6)]-β-D-mannopyranosyl-(1β4)-(1,2-dideoxy-α-D-glucopyrano)-[2,1-d]-2-oxazoline [oxazoline 39]
time to complete conversion of GlcNAc-RB [3]: ≤ 2 h | donor substrate activity in Endo-A catalyzed transglycosylation [1]: excellent substrate | time to essentially complete glycosylation of acceptor 40 ([1]; acceptor Ac-Asn(GlcNAc)-Ile-Thr (40), donor/acceptor 2:1, 23° C., Endo-A 200 mU): ≤ 30 min | transglycosylation rate compared with enzymatic hydrolysis of the oxazoline ([1]; in the presence of a GlcNAc-peptide or protein acceptor): much faster

B1: glycoprotein 44: homogeneous ribonuclease B glycoform carrying nonnatural N-glycan Gal2Man3GlcNAc2 at Asn-34 (protein, UniProt P61823 27-150, looked up)
Ribonuclease pancreatic: KETAAAKFERQHMDSSTSAASSSNYCNQMMKSRNLTKDRCKPVNTFVHESLADVQAVCSQKNVACKNGQTNCYQSYSTMSITDCRETGSSKYPNCAYKTTQANKHIIVACEGNPYVPVHFDASV
modifications: Gal2Man3GlcNAc2 N-glycan at Asn-34
hydrolysis of the ground-state glycopeptide/glycoprotein by Endo-A [4]: resistant to Endo-A catalyzed hydrolysis
